Results published in ChEMBL document CHEMBL2202979, “Development of macrocyclic inhibitors of HCV NS3/4A protease with cyclic constrained P2-P4 linkers” (Bioorg Med Chem Lett, 2012).

Assays:
[1] = Inhibition of HCV genotype 1b BK NS3/4A protease expressed in Escherichia coli incubated for 30 mins by time-resolved fluorescence assay; design: species or system Hepatitis C virus (isolate BK)
[2] = tested on: Hepatitis C virus; test: Antiviral activity against HCV genotype 1b Con1 infected in human Huh7 cells assessed as inhibition of viral replication in presence of 50% NHS by HCV bicistronic replicon assay; assay type: functional, organism-based, Hepacivirus hominis; conditions: Con1, Huh-7
[3] = target: Genome polyprotein (Hepacivirus C, UniProt K7XJL6, A156T); test: Inhibition of HCV genotype 1b BK NS3/4A protease A156T mutant expressed in Escherichia coli incubated for 30 mins by time-resolved fluorescence assay; design: species or system Hepatitis C virus (isolate BK)
[4] = target: Genome polyprotein (Hepacivirus C, UniProt K7XJL6, A156V); test: Inhibition of HCV genotype 1b BK NS3/4A protease A156V mutant expressed in Escherichia coli incubated for 30 mins by time-resolved fluorescence assay; design: species or system Hepatitis C virus (isolate BK)
[5] = target: Hepatitis C virus serine protease, NS3/NS4A (Hepatitis C virus, UniProt A3EZI9+D2K2A8, R155K); test: Inhibition of HCV genotype 1b BK NS3/4A protease R155K mutant expressed in Escherichia coli incubated for 30 mins by time-resolved fluorescence assay; design: species or system Hepatitis C virus (isolate BK)
[6] = Inhibition of HCV subtype 3a NS3/4A protease incubated for 30 mins by time-resolved fluorescence assay; design: species or system Hepatitis C virus subtype 3a
[7] = Inhibition of HCV genotype 2a JFH NS3/4A protease expressed in Escherichia coli incubated for 30 mins by time-resolved fluorescence assay; design: species or system Hepatitis C virus JFH-1
[8] = target: Genome polyprotein (Hepacivirus C, UniProt K7XJL6, D168V); test: Inhibition of HCV genotype 1b BK NS3/4A protease D168V mutant expressed in Escherichia coli incubated for 30 mins by time-resolved fluorescence assay; design: species or system Hepatitis C virus (isolate BK)
[9] = Drug level in Sprague-Dawley rat liver at 5 mg/kg, po measured 4 hrs post dose by LC/MS method; assay type: ADME, organism-based; design: dose 5 mg/kg, route oral; conditions: read-out: Drug uptake
[10] = tested on: Hepatitis C virus; test: Antiviral activity against HCV genotype 1b Con1 infected in human Huh7 cells assessed as inhibition of viral replication in presence of 10% FBS by HCV bicistronic replicon assay; assay type: functional, organism-based, Hepacivirus hominis; conditions: Con1, Huh-7

Compound | Ki [1] [nM] | IC50 [2] [nM] | Ki [3] [nM] | Ki [4] [nM] | Ki [5] [nM] | Ki [6] [nM] | Ki [7] [nM] | Ki [8] [nM] | concentration at 4 h [9] [µM] | IC50 [10] [nM]
C=C[C@@H]1C[C@]1(NC(=O)[C@@H]1C[C@@H]2CN1C(=O)[C@H](C1CCCC1)NC(=O)O[C@@H]1COC[C@H]1CCC/C=C/c1cc3ccc(OC)cc3nc1O2)C(=O)NS(=O)(=O)C1CC1 | < 0.05 | 5 | 7.8 | 64 | 0.1 | 5.7 | – | – | – | –
C=C[C@@H]1C[C@]1(NC(=O)[C@@H]1C[C@@H]2CN1C(=O)[C@H](C1CCCC1)NC(=O)OCC(C)(C)CCCc1cc3c(cc(OCC)nc3cc1OC)O2)C(=O)NS(=O)(=O)C1CC1 | 0.016 | – | – | – | 1.2 | 2.1 | 0.14 | 2.2 | – | –
C=C[C@@H]1C[C@]1(NC(=O)[C@@H]1C[C@@H]2CN1C(=O)[C@H](C1CCCC1)NC(=O)O[C@@H]1CCC[C@H]1C/C=C/c1cc3c(cc(OCC)nc3cc1OC)O2)C(=O)NS(=O)(=O)C1CC1 | < 0.05 | 17 | 0.8 | 15 | 0.5 | 4.6 | – | – | 10.2 | –
C=C[C@@H]1C[C@]1(NC(=O)[C@@H]1C[C@@H]2CN1C(=O)[C@H](C1CCCCC1)NC(=O)O[C@@H]1CCC[C@H]1C/C=C/c1cc3c(cc(OCC)nc3cc1OC)O2)C(=O)NS(=O)(=O)C1CC1 | < 0.05 | 55 | 2 | 40 | 1.3 | 3.1 | – | – | 37.1 | –
C=C[C@@H]1C[C@]1(NC(=O)[C@@H]1C[C@@H]2CN1C(=O)[C@H](C1CCCCC1)NC(=O)O[C@@H]1CCCC[C@H]1C/C=C/c1cc3c(cc(OCC)nc3cc1OC)O2)C(=O)NS(=O)(=O)C1CC1 | < 0.05 | 25 | 42 | 567 | 1.5 | 12.6 | – | – | – | –
C=C[C@@H]1C[C@]1(NC(=O)[C@@H]1C[C@@H]2CN1C(=O)[C@H](C1CCCC1)NC(=O)O[C@@H]1CCC[C@@]1(C)C/C=C/c1cc3c(cc(OCC)nc3cc1OC)O2)C(=O)NS(=O)(=O)C1CC1 | < 0.05 | 38 | 49 | – | 0.9 | 4.1 | – | – | – | –
C=C[C@@H]1C[C@]1(NC(=O)[C@@H]1C[C@@H]2CN1C(=O)[C@H](C1CCCCC1)NC(=O)O[C@@H]1COC[C@H]1C/C=C/c1cc3c(cc(OCC)nc3cc1OC)O2)C(=O)NS(=O)(=O)C1CC1 | < 0.05 | 18 | 0.7 | 23 | 0.5 | 1.9 | – | – | 0.3 | –
C=C[C@@H]1C[C@]1(NC(=O)[C@@H]1C[C@@H]2CN1C(=O)[C@H](C1CCCC1)NC(=O)O[C@H]1C[C@H](C/C=C/c3cc4c(cc(OCC)nc4cc3OC)O2)C1)C(=O)NS(=O)(=O)C1CC1 | < 0.05 | 16 | 4.8 | 16 | 2.4 | 7.7 | – | – | – | –
C=C[C@@H]1C[C@]1(NC(=O)[C@@H]1C[C@@H]2CN1C(=O)[C@H](C1CCCC1)NC(=O)OCC(C)(C)C[C@@H]1C[C@@H]1c1cc3c(cc(OCC)nc3cc1OC)O2)C(=O)NS(=O)(=O)C1CC1 | 0.016 | 11 | 2.8 | 14 | 0.2 | 1 | 0.14 | 1.8 | 27 | 2.3
C=C[C@@H]1C[C@]1(NC(=O)[C@@H]1C[C@@H]2CN1C(=O)[C@H](C1CCCC1)NC(=O)N(C)[C@@H]1CCC[C@H]1C/C=C/c1cc3c(cc(OCC)nc3cc1OC)O2)C(=O)NS(=O)(=O)C1CC1 | < 0.05 | 25 | 1.7 | 18 | 0.6 | 1.5 | – | – | 15.9 | –
C=C[C@@H]1C[C@]1(NC(=O)[C@@H]1C[C@@H]2CN1C(=O)[C@H](C1CCCCC1)NC(=O)N1CC[C@@H](C1)OC/C=C/c1cc3c(cc(OCC)nc3cc1OC)O2)C(=O)NS(=O)(=O)C1CC1 | < 0.05 | 43 | 0.4 | 6.8 | 0.2 | 1.4 | – | – | 4.8 | –
C=C[C@@H]1C[C@]1(NC(=O)[C@@H]1C[C@@H]2CN1C(=O)[C@H](C1CCCCC1)NC(=O)N1CC[C@H](C1)OC/C=C/c1cc3c(cc(OCC)nc3cc1OC)O2)C(=O)NS(=O)(=O)C1CC1 | < 0.05 | 29 | 2.4 | 134 | 0.3 | 3.6 | – | – | – | –
C=C[C@@H]1C[C@]1(NC(=O)[C@@H]1C[C@@H]2CN1C(=O)[C@H](C1CCCCC1)NC(=O)N1CCC[C@@H](C1)OCCCc1cc3c(cc(OCC)nc3cc1OC)O2)C(=O)NS(=O)(=O)C1CC1 | < 0.05 | 23 | 1.9 | 46 | 1.2 | 2.3 | – | – | 4.4 | –
C=C[C@@H]1C[C@]1(NC(=O)[C@@H]1C[C@@H]2CN1C(=O)[C@H](C1CCCCC1)NC(=O)N1CCO[C@H](CCCCc3cc4c(cc(OCC)nc4cc3OC)O2)C1)C(=O)NS(=O)(=O)C1CC1 | < 0.05 | 9 | 6.9 | – | 1 | 5.2 | – | – | – | –
C=C[C@@H]1C[C@]1(NC(=O)[C@@H]1C[C@@H]2CN1C(=O)[C@H](C1CCCCC1)NC(=O)N1CCC(CC1)OCCC/C=C/c1cc3c(cc(OCC)nc3cc1OC)O2)C(=O)NS(=O)(=O)C1CC1 | < 0.05 | 32 | 0.7 | 18 | 0.2 | 2.1 | – | – | 11 | –
C=C[C@@H]1C[C@]1(NC(=O)[C@@H]1C[C@@H]2CN1C(=O)[C@H](C1CCCCC1)NC(=O)N1CC(C1)OCCC/C=C/c1cc3c(cc(OCC)nc3cc1OC)O2)C(=O)NS(=O)(=O)C1CC1 | < 0.05 | 64 | 0.2 | 6.1 | 0.2 | 0.9 | – | – | 4 | –
C=C[C@@H]1C[C@]1(NC(=O)[C@@H]1C[C@@H]2CN1C(=O)[C@H](C1CCCC1)NC(=O)N1CC(OCC)(CCCCc3cc4c(cc(OCC)nc4cc3OC)O2)C1)C(=O)NS(=O)(=O)C1CC1 | < 0.05 | 18 | 7.1 | – | 0.9 | 1 | – | – | – | –
C=C[C@@H]1C[C@]1(NC(=O)[C@@H]1C[C@@H]2CN1C(=O)[C@H](C1CCCC1)NC(=O)O[C@@H]1CCC[C@H]1CCC/C=C/c1cc3ccc(OC)cc3nc1O2)C(=O)NS(=O)(=O)C1CC1 | < 0.05 | 58 | 17 | – | 0.2 | 11.6 | – | – | 30.8 | –
C=C[C@@H]1C[C@]1(NC(=O)[C@@H]1C[C@@H]2CN1C(=O)[C@H](C1CCCC1)NC(=O)N1CC[C@@H](C1)OCCC/C=C/c1cc3ccc(OC)cc3nc1O2)C(=O)NS(=O)(=O)C1CC1 | 0.016 | 32 | 2.9 | 37 | 0.1 | 3 | 0.17 | 1.2 | 8.6 | 3.1
C=C[C@@H]1C[C@]1(NC(=O)[C@@H]1C[C@@H]2CN1C(=O)[C@H](C1CCCC1)NC(=O)N1CC[C@@H](C1)OCCCCCc1cc3ccc(OC)cc3nc1O2)C(=O)NS(=O)(=O)C1CC1 | < 0.05 | 31 | 1.5 | 22 | 0.1 | 5.9 | – | – | 12 | –
C=C[C@@H]1C[C@]1(NC(=O)[C@@H]1C[C@@H]2CN1C(=O)[C@H](C1CCCCC1)NC(=O)N1CCC(CC1)OCCC/C=C/c1cc3ccc(OC)cc3nc1O2)C(=O)NS(=O)(=O)C1CC1 | < 0.05 | – | 11 | – | 0.3 | 27 | – | – | – | –
C=C[C@@H]1C[C@]1(NC(=O)[C@@H]1C[C@@H]2CN1C(=O)[C@H](C1CCCC1)NC(=O)N1CC(C1)OCCC/C=C/c1cc3ccc(OC)cc3nc1O2)C(=O)NS(=O)(=O)C1CC1 | < 0.05 | – | 28 | – | 0.5 | 38 | – | – | – | –
C=C[C@@H]1C[C@]1(NC(=O)[C@@H]1C[C@@H]2CN1C(=O)[C@H](C1CCCC1)NC(=O)O[C@@H]1CCC(CCCc3cc4c(cc(OCC)nc4cc3OC)O2)C1)C(=O)NS(=O)(=O)C1CC1 (mixture of isomers) | < 0.05 | 24 | 4.6 | 46 | 2 | 5 | – | – | – | –
C=C[C@@H]1C[C@]1(NC(=O)[C@@H]1C[C@@H]2CN1C(=O)[C@H](C1CCCC1)NC(=O)OC1CCC1C/C=C/c1cc3c(cc(OCC)nc3cc1OC)O2)C(=O)NS(=O)(=O)C1CC1 (mixture of isomers) | < 0.05 | – | 52 | – | 2.2 | 18 | – | – | – | –
